Here are results for two compounds from paper PMC11430712, “The Endocannabinoid Peptide RVD-Hemopressin Is a TRPV1 Channel Blocker” (Biomolecules, 2024).

Data set [1] deals with untransfected HEK293 cells. The data set can be described thus: Whole-cell voltage-clamp recording, untransfected HEK293 cells. It is filed as cell-based. The following applies: 1 µM Cap; voltage ramp -80 to 80 mV; room temperature. Here is the method: (§1) Dr. Alejandro Maureira, Universidad Católica del Maule, Chile, generously provided HEK293 cells. The cells were cultured in T75 flasks (Corning Inc., Corning, NY, USA) in a humidified atmosphere at 37 °C with 5% CO2 in Dulbecco’s Modified Eagle Medium (DMEM) with high glucose (Cytiva, Marlborough, MA, USA), supplemented with 10% fetal bovine serum (Cytiva, Marlborough, MA, USA) and a mixture of 100 IU/mL penicillin and 100 µg/mL streptomycin (Corning Inc., Corning, NY, USA) in a CO2CELL incubator (MMM Group, Munich, Germany). This procedure was used to maintain the cells for all of the experiments.
Untransfected and transfected HEK293 cells with the human TRPV1-GFP were recorded using a whole-cell voltage clamp. Cells were cultured in 15 mm round coverslips pretreated with 0.1 mg/mL poly-L-lysine (Gibco, Billings, MT, USA) and transfected with TRPV1-GFP plasmid. TRPV1-GFP-positive cells were identified using a 405 nm LED light in a Nikon Eclipse Ts2 inverted microscope. Borosilicate pipettes (nº 1B150F-4, World Precision Instruments, Sarasota, FL, USA) of 2.8’5 MΩ were used. Pipettes were pulled with a P-97 Micropipette Puller (Sutter Instruments, Novato, CA, USA). […] All the experiments were recorded using a HEKA EPC9 amplifier. […] Data were analyzed using Clampfit v.7 software (Molecular Devices, San Jose, CA, USA). […]
The data were analyzed and plotted using GraphPad software v10.0.2. […]

For data set [2], the system named is HEK293-untransfected cells. Description: Calcium imaging (Fura Red-AM), untransfected HEK293 cells. It is filed as cell-based. The following applies: 1 µM Cap, confocal, pH 7.4, room temperature, n: 26. How it is done: Dr. Alejandro Maureira, Universidad Católica del Maule, Chile, generously provided HEK293 cells. The cells were cultured in T75 flasks (Corning Inc., Corning, NY, USA) in a humidified atmosphere at 37 °C with 5% CO2 in Dulbecco's Modified Eagle Medium (DMEM) with high glucose (Cytiva, Marlborough, MA, USA), supplemented with 10% fetal bovine serum (Cytiva, Marlborough, MA, USA) and a mixture of 100 IU/mL penicillin and 100 μg/mL streptomycin (Corning Inc., Corning, NY, USA) in a CO2CELL incubator (MMM Group, Munich, Germany). This procedure was used to maintain the cells for all of the experiments. […] Then, the cells were washed and cultured during the experiment with the extracellular solution containing (in mM) 140 NaCl, 5 KCl, 2 CaCl2, 1 MgCl2, 10 HEPES, and 6 glucose, with pH adjusted to 7.4 with NaOH [13]. Calcium images were obtained every 3 s for 30 min using Leica Stellaris 5 spectral confocal microscopy. […] Fura Red emissions in bound and unbound states were acquired around their peaks at 610 nm and 670 nm, respectively. The bound and unbound fluorescence of Fura Red-AM was acquired using Leica LAS X v.4.3.0.24308 software. The Fura Red-Am bound and unbound ratio was calculated (405 nm/488 nm) and plotted. […] The data were analyzed and plotted using GraphPad software v10.0.2. […]

Data set [3] deals with T1, human TRPV1 channel (Homo sapiens, UniProt Q8NER1).
T1 construct: host or cells: HEK293
T1 sequence (Q8NER1 whole entry): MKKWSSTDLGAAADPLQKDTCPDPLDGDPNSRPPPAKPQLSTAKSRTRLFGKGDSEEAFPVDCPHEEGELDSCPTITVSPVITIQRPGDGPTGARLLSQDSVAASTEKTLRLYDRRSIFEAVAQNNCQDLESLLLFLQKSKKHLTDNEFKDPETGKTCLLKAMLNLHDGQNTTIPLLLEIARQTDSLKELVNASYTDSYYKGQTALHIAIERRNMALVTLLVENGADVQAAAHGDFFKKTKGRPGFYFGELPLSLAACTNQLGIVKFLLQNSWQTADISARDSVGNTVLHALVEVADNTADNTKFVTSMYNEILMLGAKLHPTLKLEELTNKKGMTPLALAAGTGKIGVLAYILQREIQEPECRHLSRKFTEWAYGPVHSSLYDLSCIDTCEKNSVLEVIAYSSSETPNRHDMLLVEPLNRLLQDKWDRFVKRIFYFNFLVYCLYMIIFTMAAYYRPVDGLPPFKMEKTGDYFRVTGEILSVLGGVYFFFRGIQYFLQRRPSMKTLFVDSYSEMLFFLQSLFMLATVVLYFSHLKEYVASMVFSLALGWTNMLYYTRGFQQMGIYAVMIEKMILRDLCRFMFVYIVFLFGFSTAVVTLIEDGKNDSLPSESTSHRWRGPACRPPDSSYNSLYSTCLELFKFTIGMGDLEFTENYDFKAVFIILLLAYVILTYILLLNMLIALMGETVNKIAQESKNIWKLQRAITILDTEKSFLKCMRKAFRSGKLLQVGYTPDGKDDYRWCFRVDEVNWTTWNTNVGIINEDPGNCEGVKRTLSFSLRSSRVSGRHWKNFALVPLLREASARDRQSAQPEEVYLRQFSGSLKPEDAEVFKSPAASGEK
Description: Whole-cell voltage-clamp recording of TRPV1 currents, HEK293 cells with human TRPV1-GFP. Format: cell-based. The following applies: 1 µM Cap; voltage ramp -80 to 80 mV, +80 mV; n: 7; **** p < 0.0001; room temperature. Here is the method:
as §1
(§2) HEK293 cells were transfected with the human TRPV1 channel coupled to GFP in its C-terminus (TRPV1-GFP, catalog #: RG217653, Origene, Rockville, MD, USA). […] Transfections were conducted using Lipofectamine 3000 (Invitrogen, Waltham, MA, USA), according to the manufacturer’s instructions. Experimental protocols were performed 24 h post-transfection.
Untransfected and transfected HEK293 cells with the human TRPV1-GFP were recorded using a whole-cell voltage clamp. Cells were cultured in 15 mm round coverslips pretreated with 0.1 mg/mL poly-L-lysine (Gibco, Billings, MT, USA) and transfected with TRPV1-GFP plasmid. TRPV1-GFP-positive cells were identified using a 405 nm LED light in a Nikon Eclipse Ts2 inverted microscope. Borosilicate pipettes (nº 1B150F-4, World Precision Instruments, Sarasota, FL, USA) of 2.8’5 MΩ were used. Pipettes were pulled with a P-97 Micropipette Puller (Sutter Instruments, Novato, CA, USA). The extracellular solution contained (in mM) 140 NaCl, 5 KCl, 2 CaCl2, 1 MgCl2, 10 HEPES, and 6 glucose at pH 7.4. The internal solution contained (in mM) 140 CsCl, 4 MgCl2, 10 EGTA, and 10 HEPES-CsOH at pH 7.3. All the experiments were recorded using a HEKA EPC9 amplifier. The holding potential was −80 mV. A 500 ms voltage ramp from −80 to 80 mV was applied to record TRPV1 currents. The sample frequency was 50 kHz, and the signals were filtered at 2.9 kHz using PatchMaster software. Data were analyzed using Clampfit v.7 software (Molecular Devices, San Jose, CA, USA). The extracellular solution and ligands were administered using a VC-8 perfusion system (~2 mL/s, Warner Instruments, Holliston, MA, USA). We used capsaicin (Cayman Chemicals, nº 92350), SB366791 (nº 11019, Cayman Chemicals, Ann Arbor, MI, USA), and RVD-Hp (Synbio Technologies, Monmouth Junction, NJ, USA). We used dimethyl sulfoxide (DMSO, Sigma-Aldrich, St. Louis, MO, USA) and untransfected cells as controls. Electrophysiological recordings were performed at room temperature.
(§3) The data were analyzed and plotted using GraphPad software v10.0.2. We used the Shapiro–Wilk test to determine the data distribution. […] Statistically significant values were considered when p values were * p < 0.05, ** p < 0.01, *** p < 0.001, and **** p < 0.0001.

Data set [4] addresses T1, human TRPV1 channel. The data set can be described thus: Calcium imaging (Fura Red-AM), HEK293 cells transfected with hTRPV1-GFP. It is filed as cell-based. The following applies: 1 µM Cap; hTRPV1-GFP HEK293; pH 7.4, room temperature; n: 58; vs DMSO **** p < 0.0001. How it is done:
as §1, §2, §3

The conditions of data set [5]: cited from earlier work. From the text: Capsaicin creams and patches have been used in the treatment of muscle pain, neuropathic pain, arthritis, and migraines. […] CNTX-4975 has been developed as a treatment option for pain in individuals with osteoarthritis.
For the next data set, the system named is TRPV1 channel. More on the design: method as in 4 sources, ref [12]; anandamide and 2-AG ref [13],[14],[15],[16] ||| ref [88],[89] = [88]; PMID 27281200; doi:10.1038/nature17964; 88. Gao Y. Cao E. Julius D. Cheng Y. TRPV1 structures in nanodiscs reveal mechanisms of ligand and lipid action Nature 2016 534 347 351 10.1038/nature17964 27281200 PMC4911334 || [89]; PMID 37117175; doi:10.1038/s41467-023-38162-9; 89. Neuberger A. Oda M. Nikolaev Y.A. Nadezhdin K.D. Gracheva E.O. Bagriantsev S.N. Sobolevsky A.I. Human TRPV1 structure and inhibition by the analgesic SB-366791 Nat. Commun. 2023 14 2451 10.1038/s4 ||| ref [90] = [90]; PMID 38698206; doi:10.1038/s41594-024-01299-2; 90. Arnold W.R. Mancino A. Moss F.R. Frost A. Julius D. Cheng Y. Structural basis of TRPV1 modulation by endogenous bioactive lipids Nat. Struct. Mol. Biol. 2024 1 9 10.1038/s41594-024-01299-2 3869820 ||| ref [67] = [67]; PMID 29117570; doi:10.1016/j.celrep.2017.10.063; 67. Nersesyan Y. Demirkhanyan L. Cabezas-Bratesco D. Oakes V. Kusuda R. Dawson T. Sun X. Cao C. Cohen A.M. Chelluboina B. Oxytocin Modulates Nociception as an Agonist of Pain-Sensing TRPV1 Cell Rep. 2. The conditions noted are these: cited from earlier work. From the text:
The transient receptor potential (TRP) channels family involves several subfamilies, including the vanilloid (TRPVs) group. TRPV1, a member of the TRPV subfamily, is a non-selective cationic homotetramer channel. It is known to be activated by various stimuli, including temperature, capsaicin (the principal compound in chili peppers), and endocannabinoids such as anandamide (AEA) and 2-arachidonoylglycerol (2-AG). The TRPV1 channel protein is found in the central (CNS) and peripheral nervous system (PNS). In the CNS, TRPV1 is expressed in the prefrontal cort ... || Molecular dynamics (MD) simulations allow studying protein dynamics at an atomic level under physiological conditions, enhancing our understanding of various proteins, including ion channels like TRPV1 [82]. These simulations provide insight into their function, conformational changes, and interactions with different ligands.

Another data set deals with thermal hyperalgesia. The conditions noted are these: capsazepine administration; ref [12],[32],[33],[34]; cited from earlier work.

Consider `COc1cc(CNC(=O)CCCC/C=C/C(C)C)ccc1O` [capsaicin], for which the “TRPV1 currents in untransfected cells” value in data set [1] is recorded as “did not observe TRPV1 currents”. Moreover, the “Intracellular Ca^2+ concentration (Fura Red ratio 405 nm/488 nm) in untransfected cells” value in data set [2] is “did not induce an increase in intracellular Ca^2+ concentration”. For the same compound, on human TRPV1 channel [3], the “Cap-induced TRPV1 currents” value is listed as “showed Cap-induced currents”. Besides, the “Intracellular Ca^2+ concentration (Fura Red ratio 405 nm/488 nm), agonist response” value on human TRPV1 channel [4] is reported as “produced an increase in intracellular Ca^2+ concentration”. In data set [5], the “Efficacy and bioavailability in vivo” value was “limited efficacy and bioavailability in vivo”; the Water solubility result is “poor water solubility”. Besides, the Side effects entry in data set [5] (oral administration, ref [98]) is “irritation, orofacial pain, and gastric ulcers”. For the same compound, the TRPV1 activation entry in the data set on TRPV1 channel (capsaicin ref [12], anandamide and 2-AG ref [13],[14],[15],[16]) was “activated”.

Consider `Oc1cc2c(cc1O)CN(C(=S)NCCc1ccc(Cl)cc1)CCC2` [capsazepine], for which the Thermal hyperalgesia entry in the data set on thermal hyperalgesia was “reduces thermal hyperalgesia”. For the same compound, the “TRPV1 binding mode of antagonists” value with TRPV1 channel (requiring four molecules to induce channel closure, ref [88],[89]) is “bind to the vanilloid pocket and compete with capsaicin”.
